The experiment deals with T1, Murine TRPV1 (Mus musculus, UniProt Q704Y3).
T1 construct: full-length channel, eYFP fused to C terminus (pEYFP-N3), expressed in HEK293T; cDNA gift of Michael X. Zhu; homotetramer
As to the kind of experiment: whole-cell patch clamp, Hill fit. In kind it is cell-based.

Each structure is given as a SMILES string.

T1 sequence (Q704Y3 whole entry, the tested form may be a part): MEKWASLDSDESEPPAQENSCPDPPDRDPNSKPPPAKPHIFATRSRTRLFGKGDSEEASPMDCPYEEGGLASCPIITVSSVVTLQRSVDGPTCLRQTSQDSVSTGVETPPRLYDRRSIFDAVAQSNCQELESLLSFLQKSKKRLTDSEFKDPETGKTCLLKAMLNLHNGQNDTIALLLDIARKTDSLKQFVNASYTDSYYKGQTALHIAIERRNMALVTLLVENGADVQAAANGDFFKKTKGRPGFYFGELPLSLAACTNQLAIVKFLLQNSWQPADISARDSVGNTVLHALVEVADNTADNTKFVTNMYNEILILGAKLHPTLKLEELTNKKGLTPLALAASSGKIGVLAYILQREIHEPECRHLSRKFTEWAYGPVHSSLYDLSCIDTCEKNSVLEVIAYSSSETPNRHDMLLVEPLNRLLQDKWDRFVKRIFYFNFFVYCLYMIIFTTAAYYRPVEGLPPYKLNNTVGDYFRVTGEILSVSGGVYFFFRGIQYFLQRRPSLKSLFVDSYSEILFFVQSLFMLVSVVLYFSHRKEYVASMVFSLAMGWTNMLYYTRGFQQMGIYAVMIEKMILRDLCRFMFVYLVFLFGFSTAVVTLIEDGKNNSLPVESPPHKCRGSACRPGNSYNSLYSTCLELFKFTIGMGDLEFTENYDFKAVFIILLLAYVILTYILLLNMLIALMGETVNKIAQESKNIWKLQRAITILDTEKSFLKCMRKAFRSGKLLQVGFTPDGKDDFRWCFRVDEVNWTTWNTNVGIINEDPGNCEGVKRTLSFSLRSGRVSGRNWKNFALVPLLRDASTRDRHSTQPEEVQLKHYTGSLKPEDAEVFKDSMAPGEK

In the case of `COc1cc(CNC(=O)CCCC/C=C/C(C)C)ccc1O` [capsaicin], the response was half-maximal at 186 nM (EC50).

(Values after PMC8425881, “De Novo Design of Peptidic Positive Allosteric Modulators Targeting TRPV1 with Analgesic Effects” (Advanced Science, 2021).)
